Data from patent publication EP4417190A1, “CYCLIC PEPTIDES WITH ANTI-AGING EFFICACY” (Lipotrue, S.L., priority 2023, dated 2024).

Tests used:
[1] = MTT assay, toxicity on HDFa cells; format: cell-based; settings: human, normalized to non-treated cells, read-out: Cell viability
Experimental: (§1) Toxicity of cycled peptides A and B was analyzed on human dermal fibroblasts (HDFa) and adult human epidermal keratinocytes HEKa cells by MTT assay. A stock solution of the peptide was prepared in distilled water at 25 mg/mL. This stock solution was further diluted to obtain the final working concentrations (0.001, 0.005, 0.01, 0.05, 0.1 and 0.5 mg/mL) in the corresponding culture medium. Untreated cells were used as negative control samples (Basal).
(§2) Briefly, HEKa and HDFa cells were seeded in 96-well plates at a concentration of 1×10^5 cells/mL in a final volume of 200 µL of medium (20,000 cells/well). HEKa cells were incubated in Dermal Cell Basal Medium supplemented with the Keratinocytes Growth Kit; and HDFa cells were cultured in Medium 106 supplemented with 2% of LSGS. Cells were incubated at 37°C, 5% CO2 and saturated humidity.
(§3) After 24 h of incubation, cells were treated with different concentrations of each peptide (0.001, 0.005, 0.01, 0.05, 0.1 and 0.5 mg/mL) in triplicates, for MTT evaluation. After 24 h of treatment with the peptide, medium was completely removed, and 100 µL of 0.5 mg/mL MTT solution in supplemented medium were added to each well and cells were incubated at 37°C for 3 h. After incubating with MTT, the medium of each well was aspirated and 150 µL of DMSO were added in order to solubilise the formazan crystals formed. The plates were placed on a shaker for 5 minutes for complete solubilisation of the crystals and then the absorbance at 570 nm of each well was determined, using the microplate reader Multiskan FC, which is directly proportional to the number of living cells in culture.
(§4) Absorbance values were normalized using the data obtained for non-treated cells (control), obtaining the % of viability shown in Tables 1 and 2. Each condition was performed in triplicate (n=3) in 3 independent experiments (N=3).
(§5) Concentrations of peptide for which viability is above 80% are considered safe for efficacy testing. On the contrary, concentrations for which viability goes below 80% are considered potentially toxic and are not used for efficacy testing purposes. Table 1: Toxicity of cycled peptides on HDFa cells.

[2] = MTT assay, toxicity on HEKa cells; format: cell-based; settings: human, normalized to non-treated cells, read-out: Cell viability
Experimental: as §1, §2, §3, §4, §5

FN = assay: RT-qPCR expression of aging-related gene FN in HEKa; format: cell-based, human; settings: 0.01 mg/mL, 24 h
Experimental: (§6) Then, cells were lysed, and RNA was extracted (RNeasy mini kit, Qiagen). Purified RNAs were retro-transcribed (High-capacity cDNA reverse transcription kit, Applied Biosystems). RT-qPCR was performed with the panel of TaqMan assay probes (Thermo Fisher Scientific) using StepOne plus Real time PCR instrument. […] The obtained data were analyzed using the ΔΔCt method, which provides the target gene expression values as fold changes in the treated sample compared with an untreated basal sample. Both samples were normalized with the relative expression of the housekeeping gene GAPDH.

ITGB1 = assay: RT-qPCR expression of aging-related gene ITGB1 in HEKa; format: cell-based, human; settings: 0.01 mg/mL, 24 h
Experimental: as §6

calreticulin (CALR) = assay: Calreticulin immunofluorescence quantification in HEKa; format: cell-based, human; settings: 0.005 mg/mL, 24 h
Experimental: The effect of the cycled peptide on the expression of calreticulin (CALR) in human epidermal keratinocytes from adult (HEKa) was analyzed through fluorescence microscopy evaluation.
HEKa cells were cultured on coverslips in Dermal Cell Basal Medium (DCBM) at a density of 50.000 cell/well and incubated at 37 °C in a humidified atmosphere with 5% CO2. When cell confluence was around 80%, cells were treated with cycled peptide B at 0.005 mg/mL for 24 h. After treatment, samples were washed twice with PBS, fixed with 4% formaldehyde and permeabilized with Triton X-100 0.2%. Next, samples were blocked for 1 hour with PBS/BSA 5%, in order to avoid nonspecific antibody binding. […]
Images were analyzed using Image J software. Shortly, threshold was adjusted to select CALR staining and mean fluorescent was measured. The number of cells was counted using the DAPI staining. […] Finally, all data was normalized as follows to obtain the % of CALR compared to untreated cells (Basal): % vs Basal = (fluorescence per cell in treated samples)/(fluorescence per cell in untreated samples) × 100 [formula]
Statistical data analysis was performed using Student t-test by comparison of % fluorescence from peptide B treated samples vs. untreated samples, (*, p < 0.05; **, p < 0.01 and ***, p < 0.001).

[3] = system: human immunoglobulin binding protein (BiP); assay: BiP ELISA in HEKa cell lysates; format: cell-based; settings: 24 hours
Experimental: The effect of cycled peptides was determined on the production of human immunoglobulin binding protein (BiP) in human epidermal keratinocytes from adult (HEKa), through quantification of this protein in vitro in cell culture lysates by enzyme linked immunosorbent assay (ELISA).
In this study the BiP levels in human epidermal keratinocytes treated with cycled peptide B was evaluated, through quantification of this protein in vitro in cell culture lysates by enzyme linked immunosorbent assay (ELISA).
HEKa cells were seeded in a 24-well plate at a density of 50.000 cells/well and maintained at standard culture conditions (Supplemented Dermal Cell Basal Medium, DCBM; 37°C, 95% RH, 5% CO2) for 24 hours. Then, keratinocytes were treated for 24 hours with or without the presence of 0.01 or 0.05 mg/mL of cycled peptide A or peptide B. After treatment, cells were lysed with RIPA buffer and lysates were collected and centrifuged in order to eliminate cell debris and were kept at -80°C until they were used for BiP quantification with BiP ELISA Kit according to manufacturer instructions. In order to normalize data, total protein content of each sample was quantified through Micro BCA Protein Assay kit according to manufacturer instructions.
Each condition was performed at least in triplicate (n=3) in three independent experiments (N=3). For all data, mean values of the different experiments and SEM values are shown. All data was first normalized as follows: BiP levels/cell = (BiP levels per well)/(Total protein (BCA) per well) [formula] % vs Basal = (BiP per cell in treated samples)/(Bip per cell in untreated samples) × 100 [formula]
Statistical data analysis was performed using Student t-test by comparison of % BiP expression from cells untreated (Basal) vs. treated with cycled peptide samples, *p<0.05, **p<0.01, ***p<0.001.

## CC(C)C[C@@H]1NC(=O)[C@H](C)NC(=O)[C@H](Cc2c[nH]cn2)NC(=O)[C@H](Cc2c[nH]c3ccccc23)NC(=O)[C@H](Cc2ccccc2)NC(=O)[C@H](CCCNC(=N)N)NC1=O [Peptide B, cyclo-Phe-Trp- His- Ala-Leu-Arg]
[1]; 0.001 mg/mL peptide
  viability at 24 h: 100%
[1]; 0.005 mg/mL peptide
  viability at 24 h: 99.8%
[1]; 0.01 mg/mL peptide
  viability at 24 h: 92.9%
[1]; 0.05 mg/mL peptide
  viability at 24 h: 91.9%
[1]; 0.1 mg/mL peptide
  viability at 24 h: 88.2%
[1]; 0.5 mg/mL peptide
  viability at 24 h: 73.7%
[2]; 0.001 mg/mL peptide
  viability at 24 h: 102%
[2]; 0.005 mg/mL peptide
  viability at 24 h: 103%
[2]; 0.01 mg/mL peptide
  viability at 24 h: 107%
[2]; 0.05 mg/mL peptide
  viability at 24 h: 91.4%
[2]; 0.1 mg/mL peptide
  viability at 24 h: 85.8%
[2]; 0.5 mg/mL peptide
  viability at 24 h: 61.8%
FN
  Fold change vs. Basal: 1.58
FN; normalized to GAPDH
  Mean normalized expression: 3.28E-01
ITGB1
  Fold change vs. Basal: 1.65
ITGB1; normalized to GAPDH
  Mean normalized expression: 7.16E-01
Calreticulin (CALR)
  % Mean (CALR fluorescence per cell, % vs Basal): 179.45%
  increased CALR levels when compared with untreated cells: up to 79%
[3]; 0.01 mg/mL
  % Mean (BiP per cell, % vs Basal): 110.18%
[3]; 0.05 mg/mL
  % Mean (BiP per cell, % vs Basal): 123.74%
[3]; concentration dependent
  increase of BiP levels, increment when compared with untreated cells (Basal): up to 24%
